Series [1] is described as follows: HPLC stability of melatonin during loading and storage. As to conditions: during loading and after storage at 4° C. Type of series: physicochemical.
Series [2] in a line: Release kinetics of melatonin, USP Apparatus 2 dissolution testing. Conditions: after 20 minutes; 500 ml buffer pH 6.8, 50 rpm, 37° C., 5 mg melatonin. The class given is physicochemical. The protocol: The release kinetics of melatonin was monitored using a USP Apparatus 2 dissolution testing system. The release was performed in 500 ml buffer at pH 6.8 (reflecting the pH in the oral cavity, typically in the range of pH 6.7 to 7.3) at 50 rpm stirring rate and 37° C. The dose in the dissolution tests was equivalent to 5 mg of melatonin. Melatonin was bought from PureBulk, Inc. USA. The dosage form with melatonin was compared to reference product from CVS Health, USA using the technology mentioned in U.S. Pat. No. 9,381,190 Other ingredients in the formulation include Microcrystalline cellulose (MCC) and Low-Substituted Hydroxypropyl Cellulose (L-HPC) Mannitol and magnesium stearate.

For series [3] the following is noted: cited from earlier work.

Values after ≈ are worked out from the molar mass of the structure shown. Like-named read-outs stand apart in the source and are kept apart here.

For the molecule `COc1ccc2[nH]cc(CCNC(C)=O)c2c1` [melatonin], in series [1], the “stability (HPLC)” value is reported as “no degradation”. The “dissolution (melatonin released)” value in series [2] was 93%.

For `CCN(CC)CCNC(=O)c1cc(Cl)c(N)cc1OC` [metoclopramide], the results for the solubility in series [3] (in buffer at pH 6.8) and in series [3] (in water) were 10000 µg/mL (≈ 33.4 mM) and above 6000 µg/mL, respectively.

The term solubility denotes the concentration that dissolves in the medium under given conditions.

(Values after patent US20200078307A1, “POROUS SILICA PARTICLES FOR USE IN A COMPRESSED PHARMACEUTICAL DOSAGE FORM” (Nanologica AB, priority 2018, published 2020).)
